# Where two headings read alike, the source gives them in different places.
# Tests used:
# [1] = test system: HAP1 MTAP-deleted cell line; test: Viability assay, MTAP-deleted cell line; assay type: cell-based; conditions: read-out: HAP1 MTAP deleted viability
# Source text: Table 1 additionally indicates IC50 values in a viability assay for the MTAP-deleted cell line (column 10), indicating the effect of treatment with compound on cell survival.
# PRMT5 [2] = target: T1, PRMT5 (Homo sapiens, UniProt O14744); test: PRMT5 biochemical IC50 assay with MTA as cofactor; conditions: PRMT5, MTA as cofactor; read-out: MTA IC50
# T1 construct: purchased Viva (custom protein)
# T1 sequence (O14744 whole entry): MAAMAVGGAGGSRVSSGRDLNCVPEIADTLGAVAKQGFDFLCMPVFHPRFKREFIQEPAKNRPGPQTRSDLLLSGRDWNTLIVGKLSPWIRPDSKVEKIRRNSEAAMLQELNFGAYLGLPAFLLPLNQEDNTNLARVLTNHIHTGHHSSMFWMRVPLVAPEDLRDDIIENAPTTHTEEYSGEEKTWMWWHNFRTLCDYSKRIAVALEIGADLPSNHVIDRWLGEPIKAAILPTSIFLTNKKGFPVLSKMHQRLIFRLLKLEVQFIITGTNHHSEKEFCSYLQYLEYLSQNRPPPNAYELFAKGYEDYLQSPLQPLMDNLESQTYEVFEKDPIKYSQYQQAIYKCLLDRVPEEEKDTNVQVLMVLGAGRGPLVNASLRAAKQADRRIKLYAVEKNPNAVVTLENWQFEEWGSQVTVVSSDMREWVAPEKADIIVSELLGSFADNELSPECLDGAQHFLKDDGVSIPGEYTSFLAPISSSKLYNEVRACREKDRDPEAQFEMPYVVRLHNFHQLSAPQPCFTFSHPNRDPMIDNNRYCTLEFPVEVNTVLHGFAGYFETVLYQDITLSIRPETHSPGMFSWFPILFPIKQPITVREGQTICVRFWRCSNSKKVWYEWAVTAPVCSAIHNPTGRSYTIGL
# T1 sequence (Q9BQA1 whole entry partner): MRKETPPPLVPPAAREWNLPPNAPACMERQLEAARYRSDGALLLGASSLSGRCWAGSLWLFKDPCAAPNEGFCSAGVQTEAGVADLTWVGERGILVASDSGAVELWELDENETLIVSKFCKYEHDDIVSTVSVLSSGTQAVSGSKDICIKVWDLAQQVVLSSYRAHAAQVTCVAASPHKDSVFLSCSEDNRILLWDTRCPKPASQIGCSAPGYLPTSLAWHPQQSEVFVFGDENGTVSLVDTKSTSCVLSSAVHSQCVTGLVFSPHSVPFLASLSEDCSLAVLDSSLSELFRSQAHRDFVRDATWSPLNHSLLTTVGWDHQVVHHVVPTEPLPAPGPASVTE
# [3] = test system: HAP1 MTAP-deleted cell line; test: SDMA in-cell western assay, HAP1 MTAP-deleted; assay type: cell-based; conditions: for IC50: HAP1 MTAP-deleted
# Procedure, shortened: (§1)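 IC50 values come from SDMA signal quantified by in-cell western in two HAP1 lines, one with native MTAP levels and one lacking MTAP.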
# PRMT5 [4] = target: T1, PRMT5; test: PRMT5 biochemical IC50 assay with SAM as cofactor; conditions: PRMT5, SAM as cofactor; read-out: SAM IC50
# PRMT5 [5] = target: T1, PRMT5; test: PRMT5 biochemical IC50 assay with no cofactor; conditions: PRMT5, no cofactor
# Source text: Table 1 indicates IC50 values (μM) against PRMT5 for exemplary compounds in the presence of SAM as cofactor, with no cofactor, and with MTA as cofactor, respectively (columns 4-6). […] Ki values can be calculated from the IC50 values as described in the Examples section. As detailed in the Examples section, for the assay performed in the presence of SAM, IC50=Ki×1.5 (Ki=IC50/1.5).
# [6] = test system: HAP1 MTAP-intact cell line; test: SDMA in-cell western assay, HAP1 MTAP-intact; assay type: cell-based; conditions: HAP1 MTAP-intact, read-out: MTAP HAP1 intact IC50
# Procedure, shortened: as §1
# [7] = Homo sapiens, HAP1, viability, HAP1 MTAP-deleted cell line
# [8] = Homo sapiens, HAP1, SDMA in-cell western, read-out: HAP 1 MTAP deleted IC50
# [9] = IC50 ratio HAP1 MTAP-intact / HAP1 MTAP-deleted, SDMA in-cell western
# [10] = read-out: No Cofactor/ rel IC50
# [11] = Homo sapiens, HAP1, SDMA in-cell western
# [12] = Homo sapiens, HAP1, viability assay, MTAP-deleted cell line
# [13] = Homo sapiens, HAP1, SDMA in-cell western, read-out: HAP1 MTAP deleted IC50
# [14] = Homo sapiens, HAP1, viability IC50, MTAP-deleted cell line
# [15] = Homo sapiens, HAP1, viability assay, HAP1 MTAP-deleted
# [16] = IC50 ratio HAP1 MTAP-intact vs HAP1 MTAP-deleted, SDMA in-cell western
SMILES,IC50 (PRMT5 [2]) [nM],"IC50 [3, 8] [nM]",IC50 (PRMT5 [4]) [nM],IC50 (PRMT5 [5]; [10]) [nM],"IC50 [6, 11] [nM]","IC50 [3, 13] [nM]",IC50 (PRMT5 [5]; read-out: No Cofactor/rel IC50) [nM],"IC50 ([3]; SDMA in-cell western, read-out: HAP 1 MTAP deleted IC50) [nM]",IC50 ([6]; SDMA in-cell western) [nM],"IC50 [1, 7] [µM]","MTAP intact/deleted ratio [3, 9]","IC50 [1, 12] [µM]","IC50 ([1]; viability assay, MTAP-deleted cell line) [µM]","IC50 [1, 14] [µM]","IC50 [1, 15] [µM]","MTAP intact/deleted ratio [3, 16]"
"C[C@@H]1CC[C@@H](c2ccc3c(c2)C[C@H](C)O3)N(C(=O)C(=O)Nc2cncc(C(N)=O)c2)C1 (single isomer, unassigned) [Compound 345]",< 50,,50 to 500,,> 1000,100 to 1000,50 to 500,,,,A (an IC50 ratio greater than or equal to 10 fold),1 to 10,,,,
"C[C@@H]1CC[C@@H](c2cccc(C#N)c2)N(C(=O)C(=O)Nc2cncc(C(N)=O)c2)C1 (racemic) [Compound 239, rac-5-{2-[(2R,5S)-2-(3-Cyanophenyl)-5-methylpiperidin-1-yl]-2-oxoacetamido}pyridine-3-carboxamide]",< 50,,50 to 500,,> 1000,< 100,50 to 500,,,,A (an IC50 ratio greater than or equal to 10 fold),1 to 10,,,,
"NC(=O)c1cncc(NC(=O)C(=O)N2CCCC[C@H]2c2ccccc2)c1 (single isomer, unassigned) [Compound 97]",50 to 500,> 1000,> 500,> 500,> 1000,,,,,,C (an IC50 ratio of less than 3 fold),> 10,,,,
"NC(=O)c1cncc(NC(=O)C(=O)N2CCCCC2C2CCCCC2)c1 (single isomer, unassigned) [Compound 113, 5-(2-(2-cyclohexylpiperidin-1-yl)-2-oxoacetamido)nicotinamide]",< 50,,50 to 500,50 to 500,,,,< 100,> 1000,,A (an IC50 ratio greater than or equal to 10 fold),,1 to 10,,,
"Cc1cc(NC(=O)C(=O)N2C[C@H](C)CC[C@H]2c2ccc(NS(C)(=O)=O)cc2)cnc1C (single isomer, unassigned) [Compound 630]",> 500,100 to 1000,> 500,,> 1000,,> 500,,,,A (an IC50 ratio greater than or equal to 10 fold),,,> 10,,
"CC(=O)Nc1ccc([C@@H]2CC[C@@H](C)CN2C(=O)C(=O)Nc2cncc(C(N)=O)c2)s1 (single isomer, unassigned) [Compound 704]",< 50,> 1000,> 500,,> 1000,,50 to 500,,,,C (an IC50 ratio of less than 3 fold),,,> 10,,
"C[C@@H]1CN(C(=O)C(=O)Nc2cncc(C(N)=O)c2)[C@@H](c2ccc(F)cc2)CC1(F)F (single isomer, unassigned) [Compound 718]",> 500,,> 500,,> 1000,> 1000,> 500,,,,C (an IC50 ratio of less than 3 fold),,,,> 10,
"CCOc1ncc(NC(=O)C(=O)N2C[C@@H](C)CC[C@@H]2c2ccccc2)cc1C(N)=O (single isomer, unassigned) [Compound 764]",< 50,,50 to 500,,> 1000,100 to 1000,50 to 500,,,,A (an IC50 ratio greater than or equal to 10 fold),,,,1 to 10,
"CC(=O)Nc1ccc([C@H]2CC[C@H](C)CN2C(=O)C(=O)Nc2cnc(N)c(C)c2)s1 (single isomer, unassigned) [Compound 717]",> 500,,> 500,,> 1000,> 1000,> 500,,,,C (an IC50 ratio of less than 3 fold),,,,> 10,
"Cc1cc(NC(=O)C(=O)N2C[C@H](C)CC[C@H]2c2cccnc2)cnc1N (single isomer, unassigned) [Compound 301]",< 50,,50 to 500,,100 to 1000,< 100,50 to 500,,,,B (an IC50 ratio greater than or equal to 3 fold but lower than 10 fold),1 to 10,,,,

# Further lines, with some results ahead:
IC50 (PRMT5 [2]) [nM],"IC50 [3, 8] [nM]",IC50 (PRMT5 [4]) [nM],IC50 (PRMT5 [5]; [10]) [nM],"IC50 [6, 11] [nM]","IC50 [3, 13] [nM]",IC50 (PRMT5 [5]; read-out: No Cofactor/rel IC50) [nM],"IC50 ([3]; SDMA in-cell western, read-out: HAP 1 MTAP deleted IC50) [nM]",IC50 ([6]; SDMA in-cell western) [nM],SMILES,"IC50 [1, 7] [µM]","MTAP intact/deleted ratio [3, 9]","IC50 [1, 12] [µM]","IC50 ([1]; viability assay, MTAP-deleted cell line) [µM]","IC50 [1, 14] [µM]","IC50 [1, 15] [µM]","MTAP intact/deleted ratio [3, 16]"
< 50,< 100,< 50,< 50,< 100,,,,,"COc1ncc(NC(=O)C(=O)N2C[C@@H](C)CC[C@@H]2c2ccc3sc([C@@H]4CCN(C)C4)nc3c2)cc1C(N)=O (racemic) [Compound 1278, 2-methoxy-5-[[2-oxo-2-[rac-(2R,5S)-5-methyl-2-[2-[rac-(3R)-1-methylpyrrolidin-3-yl]-1,3-benzothiazol-5-yl]-1-piperidyl]acetyl]amino]pyridine-3-carboxamide]",< 1,A (an IC50 ratio greater than or equal to 10 fold),,,,,
< 50,< 100,50 to 500,< 50,100 to 1000,,,,,"CCc1cc(NC(=O)C(=O)N2C[C@@H](C)CC[C@@H]2c2cccc(OC[C@@H](C)N(C)C)c2)cnc1N [Compound 1290, N-(6-amino-5-ethylpyridin-3-yl)-2-((2R,5S)-2-(3-(2-(dimethylamino)propoxy)phenyl)-5-methylpiperidin-1-yl)-2-oxoacetamide]",< 1,A (an IC50 ratio greater than or equal to 10 fold),,,,,
> 500,,> 500,,> 1000,> 1000,> 500,,,"Cc1cc(NC(=O)C(=O)N2C[C@H](C)CC[C@H]2c2cc(F)c3[nH]ncc3c2)cnc1N (single isomer, unassigned) [Compound 1191]",,,> 10,,,,
< 50,,50 to 500,,100 to 1000,< 100,50 to 500,,,"Cc1cc(NC(=O)C(=O)N2C[C@@H](C)CC[C@@H]2c2ccc(-c3nccs3)cc2)cnc1N (single isomer, unassigned) [Compound 820]",,B (an IC50 ratio greater than or equal to 3 fold but lower than 10 fold),,,,< 1,
< 50,,50 to 500,,< 100,< 100,< 50,,,"CCc1cc(NC(=O)C(=O)N2C[C@@H](C)CC[C@@H]2c2ccc3sc([C@H]4CCN(C)C(C)(C)C4)nc3c2)cnc1N (single isomer, unassigned) [Compound 1129]",,,< 1,,,,B (an IC50 ratio greater than or equal to 3 fold but lower than 10 fold)
< 50,,50 to 500,,100 to 1000,< 100,< 50,,,"Cc1cc(NC(=O)C(=O)N2C[C@@H](C)C(F)(F)C[C@@H]2c2ccc(F)cc2)cnc1N (single isomer, unassigned) [Compound 786]",,A (an IC50 ratio greater than or equal to 10 fold),,,,< 1,
< 50,< 100,50 to 500,< 50,100 to 1000,,,,,"CCc1cc(NC(=O)C(=O)N2C[C@@H](C)CC[C@@H]2c2ccc3sc(CC4(N(C)C)COC4)nc3c2)cnc1N [Compound 1399, N-(6-amino-5-ethylpyridin-3-yl)-2-((2R,5S)-2-(2-((3-(dimethylamino)oxetan-3-yl)methyl)benzo[d]thiazol-5-yl)-5-methylpiperidin-1-yl)-2-oxoacetamide]",< 1,A (an IC50 ratio greater than or equal to 10 fold),,,,,
< 50,,50 to 500,,100 to 1000,< 100,< 50,,,"CCc1cc(NC(=O)C(=O)N2C[C@@H](C)CC[C@@H]2c2ccc3sc(CO)nc3c2)cnc1N [Compound 1152, N-(6-amino-5-ethylpyridin-3-yl)-2-((2R,5S)-2-(2-(hydroxymethyl)benzo[d]thiazol-5-yl)-5-methylpiperidin-1-yl)-2-oxoacetamide]",,,< 1,,,,A (an IC50 ratio greater than or equal to 10 fold)
> 500,,> 500,,> 1000,> 1000,> 500,,,"CCc1cc(NC(=O)C(=O)N2C[C@@H](C)CC[C@@H]2c2ccc(-c3nccs3)cc2)cnc1N (single isomer, unassigned) [Compound 822]",,C (an IC50 ratio of less than 3 fold),,,,> 10,

# Source: patent US11999727B2 (Tango Therapeutics, Inc., priority 2020, dated 2024)
